Assay results published in the NIST ThermoML archive (doi:10.1016/j.jct.2016.02.016).

Assays:
[1] = xn = mol fraction of the nth substance listed; conditions: 100 kPa, Liquid; for speed of sound: Frequency=3 MHz, Sing-around technique in a fixed-path interferometer; for mass density: Vibrating tube method
[2] = refractive index (Na D-line) (dimensionless); xn = mol fraction of the nth substance listed; conditions: 100 kPa, Liquid, Standard Abbe refractometry

CC(C)=O [acetone] + CN(C)C=O
Conditions | mass density, [1] [kg/m3] | refractive index, [2] | speed of sound, [1] [m/s]
293.15 K, x2 = 0 | 790.19 | 1.35845 | 1183.6
293.15 K, x2 = 0.0503 | 799.565 | 1.36286 | 1200.1
293.15 K, x2 = 0.1057 | 809.645 | 1.3677 | 1218
293.15 K, x2 = 0.1529 | 818.017 | 1.37155 | 1232.9
293.15 K, x2 = 0.1992 | 826.191 | 1.37532 | 1247.6
293.15 K, x2 = 0.2475 | 834.489 | 1.37922 | 1262.6
293.15 K, x2 = 0.2981 | 843.136 | 1.38311 | 1278.3
293.15 K, x2 = 0.3458 | 851.059 | 1.38685 | 1292.6
293.15 K, x2 = 0.3942 | 859.037 | 1.3905 | 1307.4
293.15 K, x2 = 0.4516 | 868.376 | 1.39472 | 1324.6
293.15 K, x2 = 0.4973 | 875.647 | 1.398 | 1338.1
293.15 K, x2 = 0.5476 | 883.523 | 1.40156 | 1352.9
293.15 K, x2 = 0.599 | 891.359 | 1.40511 | 1367.5
293.15 K, x2 = 0.6521 | 899.454 | 1.40867 | 1382.9
293.15 K, x2 = 0.7051 | 907.302 | 1.41226 | 1397.8
293.15 K, x2 = 0.7538 | 914.504 | 1.41537 | 1411.4
293.15 K, x2 = 0.8063 | 921.993 | 1.41877 | 1425.7
293.15 K, x2 = 0.8441 | 927.346 | 1.42113 | 1436
293.15 K, x2 = 0.9022 | 935.518 | 1.42474 | 1451.7
293.15 K, x2 = 0.9471 | 941.723 | 1.42742 | 1463.7
298.15 K, x2 = 0 | 784.43 | 1.35386 | 1163.6
298.15 K, x2 = 0.05 | 793.781 | 1.35901 | 1180.1
298.15 K, x2 = 0.127 | 807.814 | 1.3664 | 1205.5
298.15 K, x2 = 0.1485 | 811.673 | 1.36834 | 1212.5
298.15 K, x2 = 0.1908 | 819.252 | 1.37223 | 1226.2
298.15 K, x2 = 0.2492 | 829.349 | 1.37711 | 1244.6
298.15 K, x2 = 0.297 | 837.55 | 1.38103 | 1259.6
298.15 K, x2 = 0.3399 | 844.898 | 1.38441 | 1273.1
298.15 K, x2 = 0.3997 | 854.838 | 1.38893 | 1291.5
298.15 K, x2 = 0.4461 | 862.361 | 1.39235 | 1305.3
298.15 K, x2 = 0.4978 | 870.632 | 1.39595 | 1320.8
298.15 K, x2 = 0.549 | 878.71 | 1.39951 | 1336.2
298.15 K, x2 = 0.5893 | 884.968 | 1.40233 | 1348.1
298.15 K, x2 = 0.6413 | 892.941 | 1.40581 | 1363.3
298.15 K, x2 = 0.6822 | 898.928 | 1.40851 | 1374.7
298.15 K, x2 = 0.7435 | 908.066 | 1.41236 | 1392.3
298.15 K, x2 = 0.7945 | 915.398 | 1.41552 | 1406.4
298.15 K, x2 = 0.8342 | 921.109 | 1.41805 | 1417.5
298.15 K, x2 = 0.8801 | 927.621 | 1.4209 | 1430.1
298.15 K, x2 = 0.9377 | 935.649 | 1.42451 | 1445.8
303.15 K, x2 = 0 | 778.63 | – | 1139.9
303.15 K, x2 = 0.0571 | 789.325 | – | 1159
303.15 K, x2 = 0.1075 | 798.734 | – | 1175.8
303.15 K, x2 = 0.148 | 805.999 | – | 1188.9
303.15 K, x2 = 0.2001 | 815.316 | – | 1205.7
303.15 K, x2 = 0.2528 | 824.518 | – | 1222.4
303.15 K, x2 = 0.3003 | 832.657 | – | 1237.3
303.15 K, x2 = 0.3487 | 840.866 | – | 1252.5
303.15 K, x2 = 0.392 | 848.12 | – | 1265.8
303.15 K, x2 = 0.4547 | 858.369 | – | 1284.8
303.15 K, x2 = 0.4991 | 865.505 | – | 1298.1
303.15 K, x2 = 0.5422 | 872.357 | – | 1310.9
303.15 K, x2 = 0.6046 | 882.041 | – | 1329.2
303.15 K, x2 = 0.6507 | 889.133 | – | 1342.6
303.15 K, x2 = 0.6986 | 896.27 | – | 1356.3
303.15 K, x2 = 0.7493 | 903.843 | – | 1370.7
303.15 K, x2 = 0.7975 | 910.848 | – | 1384.2
303.15 K, x2 = 0.8442 | 917.613 | – | 1397.1
303.15 K, x2 = 0.8972 | 925.06 | – | 1411.5
303.15 K, x2 = 0.9411 | 931.137 | – | 1423.4
